Where two headings read alike, the source gives them in different places.
Legend:
glutamine synthetase [1] = target: T1, glutamine synthetase (Rattus norvegicus, UniProt P09606); conditions: cited from earlier work
glutamine synthetase [2] = target: T1, glutamine synthetase; conditions: low dose intravenous, 24 hours prior to sacrifice
Protocol: (§1) The Hawkins data is represented with closed circles whereas the comparison tested rats are represented with “+” and open circle symbols. The monkey results are shown with triangles. N represents the number of animals studied.
(§2) The monkeys who received LSMSO at doses of 5 and 10 mg/kg were anesthetized for a four hour period prior to sacrifice.

[3] = low doses
From the text: As stated above, one unfortunate and well known side effect of MSO is that it is a convulsant.

[4] = target: γ-glutamylcysteine synthetase (Rattus norvegicus, UniProt P19468); conditions: cited from earlier work
Chain of γ-glutamylcysteine synthetase (P48508 whole entry partner, one chain of several): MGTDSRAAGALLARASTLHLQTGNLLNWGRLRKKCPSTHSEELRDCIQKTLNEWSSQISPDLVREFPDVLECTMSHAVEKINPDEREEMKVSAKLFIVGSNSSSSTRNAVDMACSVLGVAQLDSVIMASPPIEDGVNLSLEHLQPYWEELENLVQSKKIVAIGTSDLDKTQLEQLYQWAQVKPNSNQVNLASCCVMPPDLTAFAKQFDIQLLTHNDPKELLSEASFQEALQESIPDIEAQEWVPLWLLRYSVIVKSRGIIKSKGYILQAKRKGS

glutamine synthetase [5] = target: T1, glutamine synthetase; conditions: MSO pretreatment, cited from earlier work
[6] = target: cortical glutamine synthetase (Rattus norvegicus, UniProt P09606); conditions: model of acute hyperammonemia; cited from earlier work
Chain of cortical glutamine synthetase (P09606 2-373 limits assumed): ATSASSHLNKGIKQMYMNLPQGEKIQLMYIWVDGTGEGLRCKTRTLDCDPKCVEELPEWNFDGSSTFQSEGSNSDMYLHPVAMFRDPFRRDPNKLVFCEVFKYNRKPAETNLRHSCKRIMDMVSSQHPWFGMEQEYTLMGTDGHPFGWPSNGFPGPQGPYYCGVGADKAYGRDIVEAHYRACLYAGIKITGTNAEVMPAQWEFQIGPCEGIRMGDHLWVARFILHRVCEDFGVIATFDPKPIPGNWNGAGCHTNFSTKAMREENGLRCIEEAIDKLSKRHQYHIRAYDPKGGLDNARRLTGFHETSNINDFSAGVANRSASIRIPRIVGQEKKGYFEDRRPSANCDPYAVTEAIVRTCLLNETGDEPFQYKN

glutamine synthetase [7] = target: glutamine synthetase (Macaca mulatta, UniProt F7CAM5)
Chain of glutamine synthetase (Macaca mulatta, UniProt F7CAM5) (F7CAM5 1-373): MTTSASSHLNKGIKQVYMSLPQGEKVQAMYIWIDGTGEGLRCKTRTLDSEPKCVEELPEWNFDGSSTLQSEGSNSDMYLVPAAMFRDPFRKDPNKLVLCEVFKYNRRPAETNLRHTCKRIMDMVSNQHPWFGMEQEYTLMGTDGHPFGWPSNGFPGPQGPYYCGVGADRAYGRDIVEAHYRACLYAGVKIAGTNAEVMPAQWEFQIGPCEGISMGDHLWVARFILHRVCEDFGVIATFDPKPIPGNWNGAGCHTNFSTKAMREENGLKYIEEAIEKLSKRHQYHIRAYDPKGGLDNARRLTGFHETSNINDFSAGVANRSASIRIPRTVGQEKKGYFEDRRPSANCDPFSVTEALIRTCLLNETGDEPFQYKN
Protocol: as §1, §2

[8] = portacaval anastomosis rats infused with ammonium acetate, 150 mg/kg pretreatment; cited from earlier work
[9] = cited from earlier work
[10] = mice; cited from earlier work
[11] = cited from earlier work; remark: listed apart in the source
[12] = cited from earlier work; remark: listed apart in the source
glutamine synthetase [13] = conditions: cited from earlier work
[14] = rats vs dogs; cited from earlier work
[15] = rats, cited from earlier work; for paroxysmal symptoms: 100 mg/kg and 50 mg/kg, 20 hours; for brain glutamine level versus paroxysmal dose: 100 and 50 mg/kg vs 200 mg/kg, 20 hours after administration
[16] = target: T2, gamma glutamyl cysteine synthetase (Rattus norvegicus, UniProt P19468); conditions: cited from earlier work
T2 construct: host or cells: rat brain in vivo
T2 sequence (P19468 1-637): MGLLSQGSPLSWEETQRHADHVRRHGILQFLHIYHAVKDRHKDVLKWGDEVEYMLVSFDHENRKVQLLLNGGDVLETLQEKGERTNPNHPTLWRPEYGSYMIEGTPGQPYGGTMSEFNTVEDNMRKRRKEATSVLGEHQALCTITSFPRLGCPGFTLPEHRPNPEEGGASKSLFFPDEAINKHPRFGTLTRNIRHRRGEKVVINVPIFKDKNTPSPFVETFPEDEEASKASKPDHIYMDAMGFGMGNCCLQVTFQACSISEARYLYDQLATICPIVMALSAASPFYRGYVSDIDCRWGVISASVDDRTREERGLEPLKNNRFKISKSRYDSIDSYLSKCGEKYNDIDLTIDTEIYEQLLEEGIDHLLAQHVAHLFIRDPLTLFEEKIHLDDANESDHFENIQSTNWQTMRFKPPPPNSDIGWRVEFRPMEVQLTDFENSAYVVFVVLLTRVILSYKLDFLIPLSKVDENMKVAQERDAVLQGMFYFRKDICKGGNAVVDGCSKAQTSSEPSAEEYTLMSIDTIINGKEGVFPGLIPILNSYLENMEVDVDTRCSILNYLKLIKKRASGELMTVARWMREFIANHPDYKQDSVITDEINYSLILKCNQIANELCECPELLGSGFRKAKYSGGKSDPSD

[17] = rats; did not affect MSO's inhibition of GS; cited from earlier work

T1 sequence (P09606 2-373 limits assumed): as the sequence (P09606 2-373 limits assumed) above

SMILES: CS(=N)(=O)CC[C@H](N)C(=O)O (stereo partly drawn) [LSMSO, L-methionine S-sulfoximine]
- glutamine synthetase inhibition at low doses (glutamine synthetase [1]; rats, doses of less than 20 mg/kg): dramatic decrease
- state of the rats prior to sacrifice (glutamine synthetase [2]): awake and asymptomatic
- brain glutamine levels [3]: lowered
- seizures ([3]; LSMSO alone): no seizures

SMILES: CS(=N)(=O)CC[C@H](N)C(=O)O (some centres unmarked) [MSO, methionine sulfoximine]
- inhibition of γ-glutamylcysteine synthetase [4]: effective inhibitor
- cortical glutamine levels (glutamine synthetase [5]; group IV hyperammonemic rats): did not increase
- inhibition of glutamine synthetase activity (glutamine synthetase [5]; within the brain): 64%
- inhibition of cortical glutamine synthetase [6]: 64%
- prevented increase in cortical glutamine concentration [6]: 13 mmol/kg
- glutamine synthetase activity (glutamine synthetase [1]; rats, 5 to 200 mg/kg intraperitoneal): decreased in proportion to the dose
- toxicity (glutamine synthetase [1]; rats, 5 to 200 mg/kg intraperitoneal, except at the highest dose of 200 mg/kg): no evidence of toxicity
- time to raised brain concentration of ammonia (glutamine synthetase [1]; single intraperitoneal injection): ≤ 2 h
- activity and appetite (glutamine synthetase [7]; one monkey, 2.5 mg/kg, 24 hour period prior to sacrifice): normal
- sensitivity to the glutamine synthetase inhibiting effect (glutamine synthetase [7]; primates compared to rats, low doses, FIG. 1): more sensitive
- brain edema [8]: ameliorated
- intracranial pressure [8]: did not rise
- most effective dosage for episodic running behavior to repeated sounds ([9]; cats and rats): 7.5 mg/kg
- effect at 10 mg/kg ([9]; cats, 10 mg/kg): early convulsive episodes
- amounts that did not render cats susceptible ([9]; cats): less than 5 mg/kg
- in vivo ammonia toxicity [10]: marked decrease
- tumor regression ([11]; patients with far-advanced, nonresectable cancer): no evidence of tumor regression
- hepatic or renal function or hematological status ([11]; patients, divided doses every 6 or 8 hours): no change
- resistance to MSO relative to dogs ([12]; monkeys vs dogs): approximately 100 times
- inhibition at 72 hours (glutamine synthetase [13]; brain, 72 hours): remains to a considerable degree
- persistence of inhibitory effect on glutamine synthetase (glutamine synthetase [13]; brain): a long as seven days
- time of maximal inhibition in the brain (glutamine synthetase [13]; single injection): 24 h
- resistance to MSO relative to dogs [14]: approximately 100 times
- paroxysmal symptoms [15]: did not differ in any way from the control animals
- paroxysmal symptoms ([15]; listed as MSI): no paroxysmal symptoms
- seizures at highest dose ([15]; 200 mg/kg): had seizures
- brain glutamine level versus paroxysmal dose [15]: decreased to the same degree
- brain glutamine level versus paroxysmal dose ([15]; listed as MSI): reduced to the same degree

SMILES: CCCCS(=N)(=O)CCC(N)C(=O)O (centres unmarked) [buthionine sulfoximine]
- hyperammonemic brain swelling [16]: did not prevent

SMILES: CSCC[C@H](N)C(=O)O [methionine]
- MSO-induced seizures on administration of methionine ([12]; monkeys and dogs): suppressed
- protection from the convulsant effect of MSO [17]: protected
